Reference: patent US9169260B2 (MERCK SHARP & DOHME CORP., priority 2011, dated 2015)

Target: GST tagged IRAK-4 (Homo sapiens (Human), UniProt Q9NWZ3)
Assay: IRAK-4 Kinase Assay (IMAP fluorescence polarization)
Format: biochemical
Conditions: 100 μM ATP, 30 minutes at 25° C.
How it was run: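 Activity was read by IMAP fluorescence polarization, where phosphopeptide binding to M(III) nanoparticles raises FP. The 30-minute, 25° C reaction used 100 μM ATP, 100 nM RP7030 substrate and 0.5 nM GST-IRAK-4 in pH 7.2 Tris buffer with MgCl2, DTT and Tween 20.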

Chain of GST tagged IRAK-4 (Q9NWZ3 whole entry): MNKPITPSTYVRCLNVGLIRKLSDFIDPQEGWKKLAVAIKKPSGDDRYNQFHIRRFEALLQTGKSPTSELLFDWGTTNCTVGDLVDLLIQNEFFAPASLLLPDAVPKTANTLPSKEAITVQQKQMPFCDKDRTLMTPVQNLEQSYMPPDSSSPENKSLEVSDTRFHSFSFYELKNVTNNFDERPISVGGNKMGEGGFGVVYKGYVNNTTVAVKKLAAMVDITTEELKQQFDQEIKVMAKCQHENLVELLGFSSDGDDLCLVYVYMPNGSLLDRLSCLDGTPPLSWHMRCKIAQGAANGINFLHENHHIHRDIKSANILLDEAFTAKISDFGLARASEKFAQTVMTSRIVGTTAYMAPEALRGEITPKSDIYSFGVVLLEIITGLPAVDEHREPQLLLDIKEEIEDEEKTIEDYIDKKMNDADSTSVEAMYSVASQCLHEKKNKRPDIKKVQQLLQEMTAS

Row | Compound | IC50 | IC50 (μM)
1 | Cc1ccc(-n2nc(-c3ccc(S(C)(=O)=O)cc3C(F)(F)F)cc2NC(=O)c2cnn3cccnc23)cc1 [Example 338, N-{1-(4-methylphenyl)-3-[4-(methylsulfonyl)-2-(trifluoromethyl)phenyl]-1H-pyrazol-5-yl}pyrazolo[1,5-a]pyrimidine-3-carboxamide] | 0.1 µM | 
2 | Cc1ccc(-n2nc(N3CCN(S(C)(=O)=O)CC3)cc2NC(=O)c2cnn3cccnc23)nc1 [Example 199, N-(1-(5-methylpyridin-2-yl)-3-(4-(methylsulfonyl)piperazin-1-yl)-1H-pyrazol-5-yl)pyrazolo[1,5-a]pyrimidine-3-carboxamide] | < 0.1 µM | 
3 | Cc1ccc(-n2nc(C3CCN(C(C)C)CC3)cc2NC(=O)c2cnn3cc(Br)cnc23)cc1 [Example 108, 6-bromo-N-(3-(1-isopropylpiperidin-4-yl)-1-(p-tolyl)-1H-pyrazol-5-yl)pyrazolo[1,5-a]pyrimidine-3-carboxamide] | < 0.1 µM | 
4 | Cc1cccc(-n2nc(C3CCNCC3)cc2NC(=O)c2cnn3cccnc23)c1 [Example 15, N-(3-(piperidin-4-yl)-1-(m-tolyl)-1H-pyrazol-5-yl)pyrazolo[1,5-a]pyrimidine-3-carboxamide] |  | < 1 µM
5 | Cc1ccc(-n2nc(C3CCN(S(C)(=O)=O)CC3)cc2NC(=O)c2cnn3cc(C#N)cnc23)nc1 [Example 191, 6-cyano-N-(1-(5-methylpyridin-2-yl)-3-(1-(methylsulfonyl)piperidin-4-yl)-1H-pyrazol-5-yl)pyrazolo[1,5-a]pyrimidine-3-carboxamide] | < 0.1 µM | 
6 | Cc1ccc(-n2nc(-c3c(F)cccc3OCc3ccccc3)cc2NC(=O)c2cnn3cccnc23)cc1 [Example 339, N-{3-[2-(benzyloxy)-6-fluorophenyl]-1-(4-methylphenyl)-1H-pyrazol-5-yl}pyrazolo[1,5-a]pyrimidine-3-carboxamide] |  | < 1 µM
7 | Cc1ccc(-n2nc(-c3ccnn3C)cc2NC(=O)c2cnn3cccnc23)cc1 [Example 331, N-[2′-methyl-1-(4-methylphenyl)-1H,2′H-3,3′-bipyrazol-5-yl]pyrazolo[1,5-a]pyrimidine-3-carboxamide] |  | < 1 µM
8 | Cc1ccc(-n2nc(N3CCN(C4CCCC4)CC3)cc2NC(=O)c2cnn3cccnc23)nc1 [Example 323, N-[3-(4-cyclopentylpiperazin-1-yl)-1-(5-methylpyridin-2-yl)-1H-pyrazol-5-yl]pyrazolo[1,5-a]pyrimidine-3-carboxamide] | < 0.1 µM | 
9 | O=C(Nc1cc(C2CCN(S(=O)(=O)C3CC3)CC2)nn1-c1ccc(C2CC2)cn1)c1cnn2cccnc12 [Example 150, N-(1-(5-cyclopropylpyridin-2-yl)-3-(1-(cyclopropylsulfonyl)piperidin-4-yl)-1H-pyrazol-5-yl)pyrazolo[1,5-a]pyrimidine-3-carboxamide] |  | < 1 µM
10 | Cc1ccc(-n2nc(C3CCN(C)CC3)cc2NC(=O)c2cnn3cc(Br)cnc23)cc1 [Example 111, 6-bromo-N-(3-(1-methylpiperidin-4-yl)-1-(p-tolyl)-1H-pyrazol-5-yl)pyrazolo[1,5-a]pyrimidine-3-carboxamide] |  | < 1 µM
11 | Cc1ccc(-n2nc(C3CCN(S(=O)(=O)c4ccc(F)c(F)c4)CC3)cc2NC(=O)c2cnn3cccnc23)cc1 [Example 365] |  | < 1 µM
12 | CN1CCC(c2cc(NC(=O)c3cnn4cccnc34)n(-c3ccc(C4CC4)cc3F)n2)CC1 [Example 398, N-(1-(4-cyclopropyl-2-fluorophenyl)-3-(1-methylpiperidin-4-yl)-1H-pyrazol-5-yl)pyrazolo[1,5-a]pyrimidine-3-carboxamide] | < 0.1 µM | 
13 | Cc1ccc(-n2nc(-c3csc(N4CCOCC4)n3)cc2NC(=O)c2cnn3cccnc23)cc1 [Example 335, N-[1-(4-methylphenyl)-3-(2-morpholin-4-yl-1,3-thiazol-4-yl)-1H-pyrazol-5-yl]pyrazolo[1,5-a]pyrimidine-3-carboxamide] |  | < 1 µM
14 | CS(=O)(=O)N1CCC(c2cc(NC(=O)c3cnn4cccnc34)n(-c3ccc(C=O)cn3)n2)CC1 [Example 165, N-(1-(5-formylpyridine-2-yl)-3-(1-(methylsulfonyl)piperidin-4-yl)-1H-pyrazol-5-yl)pyrazolo[1,5-a]pyrimidine-3-carboxamide] | < 0.1 µM | 
15 | Cc1ccc(-n2nc(-c3ccc(N)cc3)cc2NC(=O)c2cnn3cccnc23)cc1 [Example 102, N-(3-(4-aminophenyl)-1-(p-tolyl)-1H-pyrazol-5-yl)pyrazolo[1,5-a]pyrimidine-3-carboxamide] |  | < 1 µM
16 | Cc1ccc(-n2nc(C3CCNC(=O)CC3)cc2NC(=O)c2cnn3cccnc23)cc1 (stereo not drawn) [Example 4, N-(3-(7-oxoazepan-4-yl)-1-(p-tolyl)-1H-pyrazol-5-yl)pyrazolo[1,5-a]pyrimidine-3-carboxamide] |  | < 1 µM
17 | Cc1ccc(-n2nc(C3CCNCC3)cc2NC(=O)c2cnn3cccnc23)c(F)c1 [Example 56, N-(1-(2-fluoro-4-methylphenyl)-3-(piperidin-4-yl)-1H-pyrazol-5-yl)pyrazolo[1,5-a]pyrimidine-3-carboxamide] | < 0.1 µM | 

Continued, values first:

Row | IC50 | IC50 (μM) | Compound
18 | < 0.1 µM |  | Cc1ccc(-n2nc(C3CCN(C(C)C)CC3)cc2NC(=O)c2cnn3cccnc23)cc1 [Example 37, N-(3-(1-isopropylpiperidin-4-yl)-1-(p-tolyl)-1H-pyrazol-5-yl)pyrazolo[1,5-a]pyrimidine-3-carboxamide]
19 |  | < 1 µM | Cc1ccc(-n2nc(C3CCOCC3)cc2NC(=O)c2cnn3cccnc23)cc1 [Example 46, N-(3-(tetrahydro-2H-pyran-4-yl)-1-(p-tolyl)-1H-pyrazol-5-yl)pyrazolo[1,5-a]pyrimidine-3-carboxamide]
20 |  | < 1 µM | Cc1ccc(-n2nc(C3CCN(C4CN(S(C)(=O)=O)C4)CC3)cc2NC(=O)c2cnn3cccnc23)cc1 [Example 244, N-[1-(4-methylphenyl)-3-{1-[1-(methylsulfonyl)azetidin-3-yl]piperidin-4-yl}-1H-pyrazol-5-yl]pyrazolo[1,5-a]pyrimidine-3-carboxamide]
21 |  | < 1 µM | Cc1ccc(-n2nc(C3CCN(S(=O)(=O)c4cn(C)cn4)CC3)cc2NC(=O)c2cnn3cccnc23)cc1 [Example 376, N-[3-{1-[(1-methyl-1H-imidazol-4-yl)sulfonyl]piperidin-4-yl}-1-(4-methylphenyl)-1H-pyrazol-5-yl]pyrazolo[1,5-a]pyrimidine-3-carboxamide]
22 |  | < 1 µM | Cc1ccc(-n2nc(C3CCN(C(C)CC(F)(F)F)CC3)cc2NC(=O)c2cnn3cccnc23)cc1 (stereo not drawn) [Example 260, N-{1-(4-methylphenyl)-3-[1-(3,3,3-trifluoro-1-methylpropyl)piperidin-4-yl]-1H-pyrazol-5-yl}pyrazolo[1,5-a]pyrimidine-3-carboxamide]
23 |  | < 1 µM | COC(=O)N1CC(N2CCC(c3cc(NC(=O)c4cnn5cccnc45)n(-c4ccc(C)cc4)n3)CC2)C1 [Example 238, methyl 3-(4-{1′-(4-methylphenyl)-5-[(pyrazolo[1,5-a]pyrimidin-3-ylcarbonyl)amino]-1H-pyrazol-3-yl}piperidin-1-yl)azetidine-1-carboxylate]
24 | < 0.1 µM |  | Cc1ccc(-n2nc(C3CCN(CC(F)(F)F)CC3)cc2NC(=O)c2cnn3cccnc23)cc1 [Example 41, N-(1-(p-tolyl)-3-(1-(2,2,2-trifluoroethyl)piperidin-4-yl)-1H-pyrazol-5-yl)pyrazolo[1,5-a]pyrimidine-3-carboxamide]
